Reference: patent publication US9169291B2, “Covalent conjugates between endoperoxides and transferrin and lactoferrin receptor-binding agents” (University of Washington, priority 2006, dated 2015)
Like-named read-outs stand apart in the source and are kept apart here.

Key:
human leukemia cells = conditions: cited from earlier work
normal human lymphocytes = experiment: Toxicity of artemisinin-tagged peptide in normal lymphocytes (cell counting)
Procedure: (§1) The artemisinin-tagged peptide HAIYPRH was tested on human Molt-4 lymphobastoid leukemia cells and compared with normal human lymphocytes, as follows. […] Cell viability was determined before an experiment by using trypan blue dye exclusion. After an initial counting of cells, human holotransferrin (Sigma Chemicals, St. Louis, Mo.) was added to samples of the cells. […] An equal volume of medium was added to control samples. […] At 24, 48 and 72 hrs after the addition of the tagged peptide, cell concentrations in appropriate flasks were counted using a counting hemocytometer chamber and microscope. In a similar set up, the same procedures were carried out on normal human lymphocytes.

[1] = cited from earlier work
[2] = test system: human Molt-4 lymphobastoid leukemia cells; experiment: cells; conditions: for IC50: read-out: IC50 on Molt-4 cells
Procedure: as §1

[3] = test system: DAOY human Medulloblastoma cells; conditions: for relative effectiveness on medulloblastoma cells (DAOY cells): two versus one artemisinin moiety
Procedure: DAOY human Medulloblastoma cells (10,000 cells/200 μL) were seeded on a 96 well plate and incubated for 24 h at 37° C. Cell culture medium was removed after 24 h and 150 μL of medium with different combinations of drug treatment was added. Human holotransferrin (20 μM) was added to half of the samples. Treatment medium was removed after 48 h, and 100 μL of cell medium was added, and the following protocol was used to determine cell viability: (1) 10 μL of 12 mM MTT reagent was added to each well; (2) the cultures were incubated at 37° C. for 4 h; (3) 100 μL of isopropanol was added to each well to lyse the cells and then incubated at 4° C. for 30 min; (4) after incubation each well was plunged (3×200 μL) to ensure the cells were lysed; (5) the samples were then centrifuged at 13,000 rpm in a microcentrifuge for 3 min at room temperature; and (6) 100 μL of the supernatant was read in a plate reader at λ=570 nm.

## C[C@@H]1CC[C@H]2[C@@H](C)C(=O)O[C@@H]3O[C@@]4(C)CC[C@@H]1[C@]32OO4 [Artemisinin]
Human leukemia cells
  therapeutic index (toxicity towards cancer cells versus normal cells): approximately 100

## CC[C@H](C)[C@H](NC(=O)[C@H](C)NC(=O)[C@H](Cc1c[nH]cn1)NC(=O)c1ccc(/C=N/NC(=O)c2ccc(COC3OC4O[C@@]5(C)CCC6[C@H](C)CCC([C@H]3C)[C@@]46OO5)cc2)cc1)C(=O)N[C@@H](Cc1ccc(O)cc1)C(=O)N1CCC[C@H]1C(=O)N[C@@H](CCCNC(=N)N)C(=O)N[C@@H](Cc1c[nH]cn1)C(N)=O (stereo partly shown) [ART-peptide]
Normal human lymphocytes; 3.1, 6.2, 12.4 μM, 24, 48 and 72 hours
  effect on normal lymphocytes (cell viability): without affecting normal lymphocytes

## C[C@H]1[C@H](OC(=O)CCC(=O)O)O[C@@H]2O[C@@]3(C)CC[C@H]4[C@H](C)CC[C@@H]1[C@@]24OO3 [artesunate]
[1]; cancer patient, 9 months (i.m. 60 mg/day 15 days; oral 50 mg per day 8.5 months)
  adverse side effects: No apparent adverse side effects

## CC[C@H](C)[C@H](NC(=O)[C@H](C)NC(=O)[C@H](Cc1c[nH]cn1)NC(=O)[C@H](CCCCNC(=O)c1ccc(/C=N/NC(=O)c2ccc(COC3OC4O[C@@]5(C)CCC6[C@H](C)CCC([C@H]3C)[C@@]46OO5)cc2)cc1)NC(=O)c1ccc(/C=N/NC(=O)c2ccc(COC3OC4O[C@@]5(C)CCC6[C@H](C)CCC([C@H]3C)[C@@]46OO5)cc2)cc1)C(=O)N[C@@H](Cc1ccc(O)cc1)C(=O)N1CCC[C@H]1C(=O)N[C@@H](CCCNC(=N)N)C(=O)N[C@@H](Cc1c[nH]cn1)C(N)=O (stereo partly shown) [ART2-peptide]
[2]; kept in DMSO at room temperature for one month
  change in activity after storage in DMSO: essentially no change in activity
[2]; at 72 hrs, holotransferrin 12 μM
  IC50: 0.86 ± 0.1 µM
[3]; 48 h treatment, MTT
  effect on medulloblastoma cells (DAOY cells): effective
[3]
  relative effectiveness on medulloblastoma cells (DAOY cells): more effective than ART-peptide
[3]; listed as peptide containing two artemisinin moieties
  relative effectiveness on medulloblastoma cells (DAOY cells): more potent than peptide containing one moiety

## CO[C@H]1O[C@@H]2O[C@@]3(C)CC[C@H]4[C@H](C)CC[C@@H]([C@H]1C)[C@@]24OO3 [artemether]
[1]; patient with pituitary macroadenoma, oral, 12 months
  adverse side effects: without any observed adverse side effects

## C[C@H]1[C@@H](O)O[C@@H]2O[C@@]3(C)CC[C@H]4[C@H](C)CC[C@@H]1[C@@]24OO3 [DHA, dihydroartemisinin]
[2]; Homo sapiens, MOLT-4, 72 h
  IC50: 5.3 ± 0.26 µM
[2]; fresh sample, after 72 hr
  LD50 (μM) (fresh sample): 5.3 ± 0.26 µM
[2]; stored in DMSO at room temperature for 30 days, after 72 hr
  LD50 (μM) (after stored in DMSO at room temperature for 30 days): 5.01 ± 0.35 µM
Normal human lymphocytes; Homo sapiens, Lymphocyte, read-out: IC50 for normal leukocytes
  IC50: 43 ± 22 µM
